Results as given in ChEMBL document CHEMBL3994655, “Methylsulfonyl benzothiazoles (MSBT) derivatives: Search for new potential antimicrobial and anticancer agents” (2017).
≈ marks a conversion by molar mass, not a printed value. Where a name gives a salt, the structure may show the parent alone.

Experiments:
Escherichia coli [1] = assay: Antibacterial activity against Escherichia coli ATCC 35421 after 24 to 48 hrs by macro-broth dilution method; type: functional
Escherichia coli [2] = assay: Antibacterial activity against Escherichia coli ATCC 20732 after 24 to 48 hrs by macro-broth dilution method; type: functional
Pseudomonas aeruginosa = assay: Antibacterial activity against Pseudomonas aeruginosa M5 after 24 to 48 hrs by macro-broth dilution method; type: functional
Staphylococcus aureus [3] = assay: Antibacterial activity against Staphylococcus aureus 209P assessed as zone of inhibition at 5 mg/ml by agar well diffusion method; type: functional; settings: read-out: DIZ
Escherichia coli [4] = assay: Antibacterial activity against Escherichia coli ATCC 35421 assessed as zone of inhibition at 5 mg/ml by agar well diffusion method; type: functional; settings: read-out: DIZ
Candida albicans [5] = assay: Antifungal activity against Candida albicans A01 assessed as zone of inhibition at 5 mg/ml by agar well diffusion method; type: functional; settings: read-out: DIZ
Staphylococcus aureus [6] = assay: Antibacterial activity against Staphylococcus aureus 209P assessed as zone of inhibition at 1 mg/ml by agar well diffusion method; type: functional; settings: read-out: DIZ
Escherichia coli [7] = assay: Antibacterial activity against Escherichia coli ATCC 35421 assessed as zone of inhibition at 1 mg/ml by agar well diffusion method; type: functional; settings: read-out: DIZ
Candida albicans [8] = assay: Antifungal activity against Candida albicans A01 assessed as zone of inhibition at 1 mg/ml by agar well diffusion method; type: functional; settings: read-out: DIZ
HeLa [9] = assay: Cytotoxicity against human HeLa cells assessed as cell growth at 10^-7 M after 48 hrs by SRB assay relative to control; type: functional; settings: read-out: Activity
HeLa [10] = assay: Cytotoxicity against human HeLa cells assessed as cell growth at 10^-6 M after 48 hrs by SRB assay relative to control; type: functional; settings: read-out: Activity
HeLa [11] = assay: Cytotoxicity against human HeLa cells assessed as cell growth at 10^-5 M after 48 hrs by SRB assay relative to control; type: functional; settings: read-out: Activity
HeLa [12] = assay: Cytotoxicity against human HeLa cells assessed as cell growth at 10^-4 M after 48 hrs by SRB assay relative to control; type: functional; settings: read-out: Activity
HeLa [13] = assay: Growth inhibition of human HeLa cells after 48 hrs by SRB assay; type: functional
Staphylococcus aureus [14] = assay: Antibacterial activity against Staphylococcus aureus 209P after 24 to 48 hrs by macro-broth dilution method; type: functional
Staphylococcus aureus [15] = assay: Antibacterial activity against methicillin-resistant Staphylococcus aureus 3710 after 24 to 48 hrs by macro-broth dilution method; type: functional
Staphylococcus aureus [16] = assay: Antibacterial activity against methicillin-resistant Staphylococcus aureus ATCC 33591 after 24 to 48 hrs by macro-broth dilution method; type: functional
[17] = system: Staphylococcus epidermidis; assay: Antibacterial activity against Staphylococcus epidermidis 209E after 24 to 48 hrs by macro-broth dilution method; type: functional
HeLa [18] = assay: Cytotoxicity against human HeLa cells assessed as reduction in cell viability after 48 hrs by SRB assay; type: functional, cell-based

Row | Molecule | zone of inhibition at 5000 µg/mL (Staphylococcus aureus [3]) | zone of inhibition at 5000 µg/mL (Escherichia coli [4]) | zone of inhibition at 5000 µg/mL (Candida albicans [5]) | zone of inhibition at 1000 µg/mL (Staphylococcus aureus [6]) | zone of inhibition at 1000 µg/mL (Escherichia coli [7]) | zone of inhibition at 1000 µg/mL (Candida albicans [8]) | also measured
1 | GENTAMICIN | – | – | – | – | – | – | MIC (Escherichia coli [1]): 1 µg/mL; MIC (Escherichia coli [2]): 1 µg/mL; MIC (Pseudomonas aeruginosa): 2 µg/mL
2 | CS(=O)(=O)c1nc2cc(OCc3ccc(-c4ccccc4)cc3)ccc2s1 | ≤ 7 mm | ≤ 7 mm | ≤ 7 mm | ≤ 7 mm | ≤ 7 mm | ≤ 7 mm | –
3 | CCOc1ccc2sc(S(C)(=O)=O)nc2c1NC(=O)CN1CCOCC1 | ≤ 7 mm | ≤ 7 mm | ≤ 7 mm | 9 mm | ≤ 7 mm | ≤ 7 mm | –
4 | COc1cccc2c1C(=O)c1c(O)c3c(c(O)c1C2=O)C[C@@](O)(C(=O)CO)C[C@@H]3O[C@H]1C[C@H](N)[C@H](O)[C@H](C)O1 [DOXORUBICIN HYDROCHLORIDE] | – | – | – | – | – | – | growth at 0.1 µM (HeLa [9]): -76.8%; growth at 1 µM (HeLa [10]): -82.9%; growth at 10 µM (HeLa [11]): -84.1%; growth at 100 µM (HeLa [12]): -84.6%; GI50 (HeLa [13]): < 0.1 µM; TGI (HeLa [13]): < 0.1 µM
5 | CCOc1ccc2sc(S(C)(=O)=O)nc2c1S(=O)(=O)Nc1ccc(Cl)c(Cl)c1 | ≤ 7 mm | ≤ 7 mm | ≤ 7 mm | ≤ 7 mm | ≤ 7 mm | ≤ 7 mm | –
6 | CCOc1ccc2sc(S(C)(=O)=O)nc2c1S(=O)(=O)N1CCO[C@H](COc2ccccc2)C1 | 9 mm | ≤ 7 mm | ≤ 7 mm | ≤ 7 mm | ≤ 7 mm | ≤ 7 mm | –
7 | CCOc1ccc2sc(Cl)nc2c1 | ≤ 7 mm | ≤ 7 mm | ≤ 7 mm | ≤ 7 mm | ≤ 7 mm | ≤ 7 mm | –
8 | CCOc1ccc2sc(S(C)(=O)=O)nc2c1S(=O)(=O)Nc1ccc([N+](=O)[O-])cc1 | 16 mm | 10 mm | ≤ 7 mm | 14 mm | 9 mm | ≤ 7 mm | MIC (Staphylococcus aureus [14]): 10 µg/mL (≈ 21.9 µM); MIC (Staphylococcus aureus [15]): 10 µg/mL (≈ 21.9 µM); MIC (Staphylococcus aureus [16]): 10 µg/mL (≈ 21.9 µM); MIC [17]: 10 µg/mL (≈ 21.9 µM); MIC (Escherichia coli [1]): 20 µg/mL (≈ 43.7 µM); MIC (Escherichia coli [2]): 20 µg/mL (≈ 43.7 µM); MIC (Pseudomonas aeruginosa): 50 µg/mL (≈ 109 µM); growth at 0.1 µM (HeLa [9]): 98.3%; growth at 1 µM (HeLa [10]): 46.2%; growth at 10 µM (HeLa [11]): -12.3%; growth at 100 µM (HeLa [12]): -67.8%; GI50 (HeLa [13]): 0.22 µM; LC50 (HeLa [13]): 81.5 µM; TGI (HeLa [13]): 40.8 µM; growth inhibition (GI) (HeLa [13]): Dose-dependent effect; Activity (HeLa [18]): Dose-dependent effect
9 | CS(=O)(=O)c1nc2cc(OCc3ccccc3)ccc2s1 | ≤ 7 mm | ≤ 7 mm | ≤ 7 mm | 8 mm | ≤ 7 mm | ≤ 7 mm | –
10 | CCOc1ccc2sc(S(C)(=O)=O)nc2c1S(=O)(=O)NC(C)C | ≤ 7 mm | ≤ 7 mm | ≤ 7 mm | ≤ 7 mm | ≤ 7 mm | ≤ 7 mm | –
11 | CCOc1ccc2sc(S(C)(=O)=O)nc2c1NC(=O)CNC(C)C | ≤ 7 mm | ≤ 7 mm | ≤ 7 mm | ≤ 7 mm | ≤ 7 mm | ≤ 7 mm | –
12 | CCOc1ccc2sc(S(C)(=O)=O)nc2c1S(=O)(=O)NC | ≤ 7 mm | ≤ 7 mm | ≤ 7 mm | ≤ 7 mm | ≤ 7 mm | ≤ 7 mm | –
13 | CS(=O)(=O)c1nc2cc(OCc3ccc(OCc4ccccc4)cc3)ccc2s1 | ≤ 7 mm | ≤ 7 mm | ≤ 7 mm | ≤ 7 mm | ≤ 7 mm | ≤ 7 mm | –
14 | CCOc1ccc2sc(S(C)(=O)=O)nc2c1[N+](=O)[O-] | 8 mm | ≤ 7 mm | ≤ 7 mm | ≤ 7 mm | ≤ 7 mm | ≤ 7 mm | –
15 | CCOc1ccc2sc(S(C)(=O)=O)nc2c1S(=O)(=O)O | ≤ 7 mm | ≤ 7 mm | 9 mm | ≤ 7 mm | ≤ 7 mm | ≤ 7 mm | –
16 | CCOc1ccc2sc(S(C)(=O)=O)nc2c1S(=O)(=O)NC1CC1 | ≤ 7 mm | ≤ 7 mm | ≤ 7 mm | ≤ 7 mm | ≤ 7 mm | ≤ 7 mm | –
17 | CCOc1ccc2sc(S(C)(=O)=O)nc2c1NC(=O)CNCN1CCCC1 | ≤ 7 mm | ≤ 7 mm | ≤ 7 mm | ≤ 7 mm | ≤ 7 mm | ≤ 7 mm | –
18 | CCNS(=O)(=O)c1c(OCC)ccc2sc(S(C)(=O)=O)nc12 | ≤ 7 mm | ≤ 7 mm | ≤ 7 mm | ≤ 7 mm | ≤ 7 mm | ≤ 7 mm | –
19 | CCOc1ccc2sc(S(C)(=O)=O)nc2c1NC(=O)CNCN1CCN(C(=O)OC(C)(C)C)CC1 | 8 mm | ≤ 7 mm | ≤ 7 mm | ≤ 7 mm | ≤ 7 mm | ≤ 7 mm | –
20 | O=C(O)c1cn(C2CC2)c2cc(N3CCNCC3)c(F)cc2c1=O [CIPROFLOXACIN] | – | – | – | – | – | – | MIC (Staphylococcus aureus [14]): 8 µg/mL (≈ 24.1 µM); MIC [17]: 8 µg/mL (≈ 24.1 µM)
21 | CCOc1ccc2sc(S(C)(=O)=O)nc2c1S(=O)(=O)Cl | ≤ 7 mm | ≤ 7 mm | ≤ 7 mm | ≤ 7 mm | ≤ 7 mm | ≤ 7 mm | –
22 | CCOc1ccc2sc(S(C)(=O)=O)nc2c1 | 8 mm | ≤ 7 mm | ≤ 7 mm | ≤ 7 mm | ≤ 7 mm | ≤ 7 mm | –
23 | CCOc1ccc2sc(S(C)(=O)=O)nc2c1S(=O)(=O)NCc1ccccc1 | ≤ 7 mm | ≤ 7 mm | 9 mm | ≤ 7 mm | ≤ 7 mm | ≤ 7 mm | –
24 | CC(=O)NC[C@H]1CN(c2ccc(N3CCOCC3)c(F)c2)C(=O)O1 [LINEZOLID] | – | – | – | – | – | – | MIC (Staphylococcus aureus [14]): 1 µg/mL (≈ 2.96 µM); MIC [17]: 1 µg/mL (≈ 2.96 µM)
25 | CCCNS(=O)(=O)c1c(OCC)ccc2sc(S(C)(=O)=O)nc12 | ≤ 7 mm | ≤ 7 mm | ≤ 7 mm | ≤ 7 mm | ≤ 7 mm | ≤ 7 mm | –
26 | CCOc1ccc2sc(S(C)(=O)=O)nc2c1S(=O)(=O)Nc1ccc(Br)cc1 | 11 mm | 10 mm | ≤ 7 mm | 9 mm | 9 mm | ≤ 7 mm | growth at 0.1 µM (HeLa [9]): 95.9%; growth at 1 µM (HeLa [10]): 73.7%; growth at 10 µM (HeLa [11]): -11.2%; growth at 100 µM (HeLa [12]): -82.3%; GI50 (HeLa [13]): 6.8 µM; LC50 (HeLa [13]): 74.5 µM; TGI (HeLa [13]): 40.6 µM; growth inhibition (GI) (HeLa [13]): Dose-dependent effect; Activity (HeLa [18]): Dose-dependent effect
27 | CCOc1ccc2sc(S(C)(=O)=O)nc2c1NC(=O)CCl | ≤ 7 mm | ≤ 7 mm | ≤ 7 mm | ≤ 7 mm | ≤ 7 mm | ≤ 7 mm | –
28 | CS(=O)(=O)c1nc2cc(O)ccc2s1 | ≤ 7 mm | ≤ 7 mm | ≤ 7 mm | ≤ 7 mm | ≤ 7 mm | ≤ 7 mm | –
